The record followed here is article PMC6099690, “TRPA1 Modulating C14 Polyacetylenes from the Iranian Endemic Plant Echinophora platyloba” (Molecules : A Journal of Synthetic Chemistry and Natural …, 2018).

SMILES strings stand for the structures.

For assay [1], the target named is T1, rat TRPA1 (Rattus norvegicus, UniProt Q6RI86).
T1 construct: expressed in transfected cells
Put plainly: Antagonist/desensitizing assay: inhibition of AITC (100 μM)-induced [Ca2+]i elevation in rTRPA1-HEK293 cells. Type of assay: cell-based. The following applies: compound added 5 min before stimulation with AITC 100 μM; HEK293 cells transfected with rTRPA1; read-out: IC50 inh TRPA1 (AITC 100 μM). As for the experimental part: HEK-293 cells stably over-expressing recombinant rat TRPA1, TRPM8, TRPV2-4, TRPM8 or human TRPV1 were selected by Geneticin 600 μg mL^−1, grown on 100-mm diameter Petri dishes as monolayers in minimum essential medium supplemented with non-essential amino acids, 10% fetal bovine serum, and 2 mM glutamine, and maintained under 5% CO2 at 37 °C. Stable expression of each channel was checked by quantitative real time-PCR. The effect of the substances on intracellular Ca^2+ concentration [Ca^2+]i was determined using Fluo-4, a selective intracellular fluorescent probe for Ca^2+. Toward this aim, on the day of the experiment, cells over-expressing the TRP channels were loaded for 1 h in the dark at room temperature with the methyl ester Fluo4-AM (4 μM in DMSO containing 0.02% Pluronic F-127, Invitrogen, Carlsbad, CA, USA) in minimum essential medium without fetal bovine serum. After the loading, cells were washed twice in Tyrode’s buffer (145 mM NaCl, 2.5 mM KCl, 1.5 mM CaCl2, 1.2 mM MgCl2, 10 mM D-glucose, and 10 mM HEPES, pH 7.4), re-suspended in Tyrode’s buffer, and transferred (about 100,000 cells) to the quartz cuvette of the spectrofluorimeter (Perkin-Elmer LS50B; PerkinElmer Life and Analytical Sciences, Waltham, MA, USA) under continuous stirring. [Ca^2+]i was determined before and after the addition of various concentrations of test compounds by measuring cell fluorescence at 25 °C (λEX = 488 nm, λEM = 516 nm). Curve fitting (sigmoidal dose-response variable slope) and parameter estimation were performed with GraphPad Prism® (GraphPad Software Inc., San Diego, CA, USA). […] Antagonist/desensitizing behavior was evaluated for TRPA1 by adding the test compounds in the quartz cuvette 5 min before stimulation of cells with the agonist AITC (100 μM). Data are expressed as the concentration exerting a half maximal inhibition of agonist-induced [Ca^2+]i elevation (IC50), which was calculated again using GraphPad Prism® software. […]

Assay [2] deals with T1, rat TRPA1. Put plainly: Calcium influx (Fluo-4 fluorimetric) agonist assay in HEK293 cells transfected with rTRPA1. Type of assay: cell-based. The following applies: for EC50: half-maximal increase in [Ca2+]i, read-out: Potency EC50; for Efficacy: maximum [Ca2+]i elevation as % of allylisothiocyanate (AITC) at 100 μM. As to the method:
HEK-293 cells stably over-expressing recombinant rat TRPA1, TRPM8, TRPV2-4, TRPM8 or human TRPV1 were selected by Geneticin 600 μg mL^−1, grown on 100-mm diameter Petri dishes as monolayers in minimum essential medium supplemented with non-essential amino acids, 10% fetal bovine serum, and 2 mM glutamine, and maintained under 5% CO2 at 37 °C. Stable expression of each channel was checked by quantitative real time-PCR. The effect of the substances on intracellular Ca^2+ concentration [Ca^2+]i was determined using Fluo-4, a selective intracellular fluorescent probe for Ca^2+. Toward this aim, on the day of the experiment, cells over-expressing the TRP channels were loaded for 1 h in the dark at room temperature with the methyl ester Fluo4-AM (4 μM in DMSO containing 0.02% Pluronic F-127, Invitrogen, Carlsbad, CA, USA) in minimum essential medium without fetal bovine serum. After the loading, cells were washed twice in Tyrode’s buffer (145 mM NaCl, 2.5 mM KCl, 1.5 mM CaCl2, 1.2 mM MgCl2, 10 mM D-glucose, and 10 mM HEPES, pH 7.4), re-suspended in Tyrode’s buffer, and transferred (about 100,000 cells) to the quartz cuvette of the spectrofluorimeter (Perkin-Elmer LS50B; PerkinElmer Life and Analytical Sciences, Waltham, MA, USA) under continuous stirring. [Ca^2+]i was determined before and after the addition of various concentrations of test compounds by measuring cell fluorescence at 25 °C (λEX = 488 nm, λEM = 516 nm). Curve fitting (sigmoidal dose-response variable slope) and parameter estimation were performed with GraphPad Prism® (GraphPad Software Inc., San Diego, CA, USA). Potency was expressed as the concentration of test substances exerting a half-maximal agonist effect (i.e., half-maximal increases in [Ca^2+]i (EC50), calculated by using GraphPad®. The efficacy of the agonists was first determined by normalizing their effect to the maximum Ca^2+ influx effect on [Ca^2+]i observed with application of 4 μM ionomycin (Sigma, St. Louis, MO, USA). The increases in fluorescence in wild-type HEK293 cells (i.e., not transfected with any construct) were used as baseline and subtracted from the values obtained from transfected cells. The effects of TRPA1 agonists are expressed as a percentage of the effect obtained with 100 μM allyl isothiocyanate (AITC). Antagonist/desensitizing behavior was evaluated for TRPA1 by adding the test compounds in the quartz cuvette 5 min before stimulation of cells with the agonist AITC (100 μM). Data are expressed as the concentration exerting a half maximal inhibition of agonist-induced [Ca^2+]i elevation (IC50), which was calculated again using GraphPad Prism® software. The effect on [Ca^2+]i exerted by agonist alone was taken as 100%. Dose-response curves were fitted by a sigmoidal regression with variable slope. All determinations were at least performed in triplicate. Statistical analysis of the data was performed by analysis of variance at each point using ANOVA followed by Bonferroni’s test.

T1 sequence (Q6RI86 whole entry): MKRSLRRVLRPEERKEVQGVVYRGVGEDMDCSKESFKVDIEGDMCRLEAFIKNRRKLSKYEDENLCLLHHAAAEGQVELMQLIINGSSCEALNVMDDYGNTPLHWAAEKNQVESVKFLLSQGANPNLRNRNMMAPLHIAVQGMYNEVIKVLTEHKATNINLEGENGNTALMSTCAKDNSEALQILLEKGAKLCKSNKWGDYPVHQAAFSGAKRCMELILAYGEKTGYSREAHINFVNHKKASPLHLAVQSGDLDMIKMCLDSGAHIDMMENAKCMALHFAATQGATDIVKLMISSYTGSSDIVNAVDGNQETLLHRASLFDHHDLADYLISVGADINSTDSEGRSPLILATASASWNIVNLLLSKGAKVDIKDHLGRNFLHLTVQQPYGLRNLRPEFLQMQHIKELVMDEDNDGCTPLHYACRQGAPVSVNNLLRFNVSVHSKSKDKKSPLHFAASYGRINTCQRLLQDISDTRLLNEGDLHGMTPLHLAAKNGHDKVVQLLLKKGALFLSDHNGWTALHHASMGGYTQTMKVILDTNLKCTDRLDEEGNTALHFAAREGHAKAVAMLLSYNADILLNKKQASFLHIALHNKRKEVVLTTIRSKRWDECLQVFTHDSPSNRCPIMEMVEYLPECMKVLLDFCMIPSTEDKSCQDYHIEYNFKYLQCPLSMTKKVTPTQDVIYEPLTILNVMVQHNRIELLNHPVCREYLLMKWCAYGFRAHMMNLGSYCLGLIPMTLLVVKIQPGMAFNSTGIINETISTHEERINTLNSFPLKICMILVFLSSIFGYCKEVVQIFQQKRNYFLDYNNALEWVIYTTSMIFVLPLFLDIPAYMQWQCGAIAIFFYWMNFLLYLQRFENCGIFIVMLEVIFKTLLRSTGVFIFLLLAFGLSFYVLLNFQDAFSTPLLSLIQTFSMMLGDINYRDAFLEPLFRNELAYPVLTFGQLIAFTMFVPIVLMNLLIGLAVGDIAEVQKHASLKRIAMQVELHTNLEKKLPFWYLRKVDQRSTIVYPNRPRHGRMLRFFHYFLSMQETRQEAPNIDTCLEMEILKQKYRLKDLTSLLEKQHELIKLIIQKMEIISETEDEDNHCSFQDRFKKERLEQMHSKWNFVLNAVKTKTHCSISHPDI

One may read the IC50 as the concentration that inhibits the measured activity by half. One may read the EC50 as the concentration at which the effect is half-maximal. `CCCC#CC#CCCc1cccc(=O)o1` [Echinophorin A (5), echinophorin A]: the IC50 at rat TRPA1 [1] turned out to be 45.7 ± 3.5 µM. Moreover, on rat TRPA1 [2], the half-maximal effective concentration (EC50) is 20.3 ± 3.2 µM and the Efficacy is given as 81.0 ± 3.3 % AITC. The Efficacy result on rat TRPA1 [2] (listed as 5) is listed as “about 80 % AITC”.
For the compound `C/C=C\C#CC#CCCc1cccc(=O)o1` [Echinophorin B (4), echinophorin B], the 50% inhibitory concentration (IC50) at rat TRPA1 [1] stood at 37.2 ± 0.8 µM. Further, at rat TRPA1 [2], the EC50 was 25 ± 3 µM and the Efficacy was found to be 82.0 ± 2.8 % AITC. Further, the Efficacy result at rat TRPA1 [2] (listed as 4) is “about 80 % AITC”.
On to `CC#CC#CC#CCCc1cccc(=O)o1` [Echinophorin D (3), echinophorin D], for which the IC50 at rat TRPA1 [1] amounted to 87 ± 1.5 µM. Also, the EC50 at rat TRPA1 [2] came out at 30.9 ± 2.8 µM. Moreover, the results for the Efficacy on rat TRPA1 [2] and at rat TRPA1 [2] (listed as 3) were 51.7 ± 1.3 % AITC and “about 52 % AITC”, respectively.
